Assay results: the Deep4Chem optical property database
Several values for one entry are separate records, joined by “and”; a condition that tells them apart may be missing. Equal values may be shown once.

Assay: solvent given as SMILES

Which absorption maximum (in CC1COC(=O)O1) does the source give for CN(C)c1ccc(/C=C/c2cc[n+](CCC[n+]3ccc(/C=C/c4ccc(N(C)C)cc4)cc3)cc2)cc1 here?
Its absorption maximum is 485 nm.

What about the absorption maximum (in CC#N) of the same compound?
The absorption maximum was 488 nm.

What about the absorption maximum (in CC(C)=O) of the same compound?
The absorption maximum was 484 nm.

And the absorption maximum (in CC(C)O)?
Its absorption maximum is 499 nm.

What about the absorption maximum (in CCO) of the same compound?
Its absorption maximum is 500 nm.

And the absorption maximum (in CN(C)C=O)?
Its absorption maximum is 485 nm.

What about the absorption maximum (in CO) of the same compound?
The absorption maximum was 494 nm.

And the absorption maximum (in CS(C)=O)?
The absorption maximum was 485 nm.

What about the absorption maximum (in ClC(Cl)Cl) of the same compound?
Its absorption maximum is 501 nm.

What about the absorption maximum (in O) of the same compound?
Its absorption maximum is 466 nm.

What about the absorption maximum (in c1ccncc1) of the same compound?
The absorption maximum was 498 nm.

For CC1(C)c2ccccc2N(c2ccc(-c3ccc4c(c3)c3cc(-c5ccc(N6c7ccccc7C(C)(C)c7ccccc76)cc5)ccc3c3nc(C#N)c(C#N)nc43)cc2)c2ccccc21, which absorption maximum (in Cc1ccccc1) is on record?
The absorption maximum was 405 nm.

Which absorption maximum (in ClCCl) does the source give for COc1ccc(-c2c3cc4ccccc4cc3c(C#Cc3ccccc3)c3cc4cc(C)sc4cc23)cc1 here?
Its absorption maximum is 580 nm.

With CC(C)(C)c1cc(C(C)(C)C)c(-c2nnc(-c3ccc(-n4c5ccccc5c5ccccc54)cc3)o2)c(C(C)(C)C)c1 as the compound, how does the absorption maximum (in Cc1ccccc1) read?
The absorption maximum was 340 nm.

For CC(C)(C)NC1=CC2=c3cc(NC(C)(C)C)c4nc(C(F)(F)C(F)(F)C(F)(F)F)nc5c(NC(C)(C)C)cc(c3c54)C3=CC(NC(C)(C)C)=C4N=C(C(F)(F)C(F)(F)C(F)(F)F)N=C1C4C32 (stereo unspecified), which absorption maximum (in C1CCOC1) is on record?
The absorption maximum was 646 nm.

Which absorption maximum (in CC#N) does the source give for COc1ccc(/C=C/C(=O)c2c(O)cc(C)oc2=O)cc1 here?
The absorption maximum was 380 nm.

And the absorption maximum (in ClCCl)?
The absorption maximum was 384 nm.

With CC(=O)c1ccc2ccc3c(NCCC(=O)NCCCCCCc4nc5c(=O)[nH]c(N)nc5n4[C@H]4C[C@H](O)[C@@H](CO)O4)ccc4ccc1c2c43 as the compound, how does the absorption maximum (in C1CCOC1) read?
Its absorption maximum is 451 nm.

What about the absorption maximum (in CC#N) of the same compound?
Its absorption maximum is 440 nm.

What about the absorption maximum (in CC(C)O) of the same compound?
The absorption maximum was 452 nm.

And the absorption maximum (in CCO)?
Its absorption maximum is 451 nm.

And the absorption maximum (in CN(C)C=O)?
The absorption maximum was 452 nm.

And the absorption maximum (in CO)?
Its absorption maximum is 447 nm.

What about the absorption maximum (in CS(C)=O) of the same compound?
Its absorption maximum is 456 nm.

And the absorption maximum (in O)?
The absorption maximum was 460 nm.

What about the absorption maximum (in OCC(O)CO) of the same compound?
Its absorption maximum is 464 nm.

For Cc1cc(C)c(C2=C3C=C(/C=C/C(=O)OC(C)(C)C)C=[N+]3[B-](F)(F)n3cc(/C=C/C(=O)OC(C)(C)C)cc32)c(C)c1, which absorption maximum (in ClCCl) is on record?
Its absorption maximum is 580 nm.

What does the source list for CC(C)(C)c1ccc(C2=c3sc4ccccc4c3=[N+]3C2=Nc2c(-c4ccc(C(C)(C)C)cc4)c4sc5ccccc5c4n2[B-]3(F)F)cc1?
absorption maximum (in C1CCOC1): 709 nm; absorption maximum (in Cc1ccccc1): 715 nm; absorption maximum (in ClC(Cl)Cl): 711 nm

What does the source list for O=Cc1cc(O)ccc1O?
absorption maximum (in C1CCOC1): 366 nm; absorption maximum (in C1COCCO1): 363 nm; absorption maximum (in CC#N): 362 nm; absorption maximum (in CC(C)=O): 364 nm; absorption maximum (in CCCO): 367 nm; absorption maximum (in CCO): 367 nm; absorption maximum (in CN(C)C=O): 365 nm; absorption maximum (in CN(C)P(=O)(N(C)C)N(C)C): 369 nm; absorption maximum (in CNC=O): 358 nm; absorption maximum (in CO): 364 nm; absorption maximum (in CS(C)=O): 366 nm; absorption maximum (in ClC(Cl)Cl): 362 nm; absorption maximum (in NC=O): 363 nm

For N#CC(C#N)=Cc1ccc2nc(C#Cc3ccc(N(c4ccc(C#Cc5nc6ccc(C=C(C#N)C#N)cc6s5)cc4)c4ccc(C#Cc5nc6ccc(C=C(C#N)C#N)cc6s5)cc4)cc3)sc2c1, which absorption maximum (in Cc1ccccc1) is on record?
Its absorption maximum is 440 nm.

With O=C1/C(=C2\Sc3ccc(S(=O)(=O)Cl)cc3C2=O)Sc2ccc(S(=O)(=O)Cl)cc21 as the compound, how does the absorption maximum (in C1COCCO1) read?
Its absorption maximum is 526 nm.

And the absorption maximum (in CS(C)=O)?
The absorption maximum was 553 nm.

With O=C1C=C(Nc2ccccc2[N+](=O)[O-])C(=O)c2ccccc21 as the compound, how does the absorption maximum (in CO) read?
Its absorption maximum is 450 nm.

For Nc1ccc(/C=C/c2ccccc2)cc1, which absorption maximum (in CC#N) is on record?
The absorption maximum was 318 nm.

What about the absorption maximum (in CCCCCC) of the same compound?
Its absorption maximum is 316 nm.

For Cc1ccc(-c2oc3cccc4c5c(-c6ccc(C)cc6)c(=N)oc6cccc(c2c34)c65)cc1, which absorption maximum (in ClC(Cl)Cl) is on record?
The absorption maximum was 400 nm.

Which absorption maximum (in C1CCCCC1) does the source give for c1ccc(-c2c3c(c(-c4ccccc4)c4c2-c2ccccc2C4)-c2ccccc2C3)cc1 here?
Its absorption maximum is 329 nm.

Which absorption maximum (in CO) does the source give for CC1=CC(/C=C/c2ccc(OCCCN=[N+]=[N-])cc2)=[N+]2C1=C(c1ccccc1)c1c(C)cc(C)n1[B-]2(F)F here?
Its absorption maximum is 564 nm.

For Cc1ccc(C)c(C2=C3C=CC(=[N+](C)C)C=C3[Si](C)(C)c3cc(N(C)C)ccc32)c1, which absorption maximum (in O) is on record?
Its absorption maximum is 646 nm.

With O=C1OC(c2ccccc2)=N/C1=C\c1ccccc1 as the compound, how does the absorption maximum (in C1COCCO1) read?
The absorption maximum was 363 nm.

With C1=Cc2ccc(N(c3ccccc3)c3cccc4ccccc34)cc2C2(c3cc(N(c4ccccc4)c4cccc5ccccc45)ccc31)c1ccccc1-c1ccccc12 as the compound, how does the absorption maximum (in ClCCl) read?
The absorption maximum was 403 nm.

With CC1(C)c2ccccc2N(c2ccc3c(c2)Oc2ccccc2S3(=O)=O)c2ccccc21 as the compound, how does the absorption maximum (in Cc1ccccc1) read?
Its absorption maximum is 356 nm.

For F[B-]1(F)OC(c2ccccc2)=Cc2c3ccccc3c3ccccc3[n+]21, which absorption maximum (in ClC(Cl)Cl) is on record?
The absorption maximum was 432 nm.

For FC(F)(F)c1ccc(/C=C2\C=C(c3ccccc3)C=C2c2ccccc2)cc1, which absorption maximum (in C1CCOC1) is on record?
The absorption maximum was 450 nm.

With F[B-]1(F)n2c(c(-c3ccccc3)c3ccccc32)C(c2ccccc2)=C2C(c3ccccc3)=c3ccccc3=[N+]21 as the compound, how does the absorption maximum (in ClCCl) read?
Its absorption maximum is 568 nm.

Which absorption maximum (in C1CCOC1) does the source give for CCn1c2ccccc2c2cc(C#Cc3cc(C#Cc4ccc5c(c4)c4ccccc4n5CC)nc(S(C)(=O)=O)n3)ccc21 here?
Its absorption maximum is 408 nm.

And the absorption maximum (in CCOC(C)=O)?
The absorption maximum was 405 nm.

What about the absorption maximum (in CN(C)C=O) of the same compound?
The absorption maximum was 415 nm.

What about the absorption maximum (in Cc1ccccc1) of the same compound?
Its absorption maximum is 411 nm.

What about the absorption maximum (in ClCCl) of the same compound?
Its absorption maximum is 417 nm.

For CC(C)(C)c1ccc2oc3nc4oc5ccc(N(c6ccccc6)c6ccccc6)cc5c4cc3c2c1, which absorption maximum (in ClC(Cl)Cl) is on record?
The absorption maximum was 342 nm.

For COc1ccc(-c2csc(/C(C#N)=C/c3ccc(Cl)cc3)n2)cc1, which absorption maximum (in CC#N) is on record?
The absorption maximum was 376 nm.

Which absorption maximum (in Cc1ccccc1) does the source give for N#Cc1nc(-c2ccc(N3c4ccccc4Oc4ccccc43)cc2)c(-c2ccc(N3c4ccccc4Oc4ccccc43)cc2)nc1C#N here?
Its absorption maximum is 473 nm.

Which results are given for FC(F)(F)C(F)(F)C(F)(F)C(F)(F)C(F)(F)C(F)(F)CCOc1nnc(Cl)nn1?
absorption maximum (in ClCCl): 519 nm; absorption maximum (in OCC(F)(F)F): 519 nm

Which absorption maximum (in CS(C)=O) does the source give for Clc1cccc(-c2nc3sc4ccccc4c3s2)c1 here?
Its absorption maximum is 351 nm.

With CCOC(=O)CCCCCn1c2ccc(N)cc2c(=O)c2cc3c(cc21)c(=O)c1cc(N)ccc1n3CCCCCC(=O)OCC as the compound, how does the absorption maximum (in ClCCl) read?
The absorption maximum was 574 nm.

Which absorption maximum (in O) does the source give for CC(=O)Nc1ccc2c(c1)c(=O)c1ccccc1n2CCCCCC(=O)O here?
Its absorption maximum is 398 nm.

With Cc1ccc(C2CC(c3ccc(O)cc3)=NN2c2ccc(S(N)(=O)=O)cc2)cc1 (stereo unspecified) as the compound, how does the absorption maximum (in C1CCOC1) read?
Its absorption maximum is 359 nm.

What about the absorption maximum (in C1COCCO1) of the same compound?
Its absorption maximum is 360 nm.

What about the absorption maximum (in CC#N) of the same compound?
Its absorption maximum is 358 nm.

What about the absorption maximum (in CC(C)O) of the same compound?
The absorption maximum was 358 nm.

And the absorption maximum (in CCO)?
The absorption maximum was 358 nm.

And the absorption maximum (in CCOC(C)=O)?
Its absorption maximum is 358 nm.

And the absorption maximum (in CN(C)C=O)?
The absorption maximum was 362 nm.

What about the absorption maximum (in CO) of the same compound?
Its absorption maximum is 357 nm.

And the absorption maximum (in CS(C)=O)?
Its absorption maximum is 364 nm.

And the absorption maximum (in O)?
The absorption maximum was 360 nm.

For COc1ccc(-c2ccc(-c3ccccc3)cc2)cc1, which absorption maximum (in C1CCCCC1) is on record?
Its absorption maximum is 291 nm.

Which results are given for O=C1c2ccc3c4ccc5c6c(ccc(c7ccc(c2c37)C(=O)N1c1ccc(O)cc1)c64)C(=O)N(c1ccc(O)cc1)C5=O?
absorption maximum (in C1CCOC1): 519 nm; absorption maximum (in CN1CCCC1=O): 525 nm; absorption maximum (in CN(C)C=O): 522 nm and 524 nm

For N#Cc1ccc(N)cc1, which absorption maximum (in C1CCCCC1) is on record?
The absorption maximum was 283 nm.

And the absorption maximum (in CC#N)?
Its absorption maximum is 272.85 nm.

And the absorption maximum (in CCCCCC)?
Its absorption maximum is 260.99 nm.

What about the absorption maximum (in CCO) of the same compound?
Its absorption maximum is 276 nm.

And the absorption maximum (in O)?
The absorption maximum was 283 nm.

What about the absorption maximum (in OCC(F)(F)F) of the same compound?
Its absorption maximum is 264 nm.

For COc1ccc2c(c1)N(c1ccccc1-c1ccccc1)c1cc3c(cc1=N2)Oc1c(cc(C(C)(C)C)cc1C(C)(C)C)N=3, which absorption maximum (in CC#N) is on record?
The absorption maximum was 532 nm.

And the absorption maximum (in CCCCCC)?
Its absorption maximum is 559 nm.

What about the absorption maximum (in CO) of the same compound?
The absorption maximum was 552 nm.

With O=C1/C(=C2\Sc3ccccc3C2=O)Sc2ccccc21 as the compound, how does the absorption maximum (in C1COCCO1) read?
The absorption maximum was 536 nm.

And the absorption maximum (in CN(C)C=O)?
Its absorption maximum is 543 nm.

What about the absorption maximum (in CO) of the same compound?
The absorption maximum was 538 nm.

What about the absorption maximum (in CS(C)=O) of the same compound?
Its absorption maximum is 545 nm.

And the absorption maximum (in c1ccccc1)?
The absorption maximum was 544 nm.

For O=[N+]([O-])c1ccc(N/C=C/C=[NH+]c2ccc([N+](=O)[O-])cc2)cc1, which absorption maximum (in CS(C)=O) is on record?
Its absorption maximum is 388 nm.
